From the supplement of paper PMC8671470

Key:
Settings in all cases: 72 h
BV-173 [1] = tested on: BV-173
How it was run: (§1)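 In 384-well plates holding acoustically pre-printed compounds at five tenfold doses from 1 to 10,000 nM, in duplicate, fifteen myeloid leukaemia cell lines were grown in RPMI 1640 for 72 h at 37 °C with 5% CO2. Luminescent ATP viability was scaled between vehicle and a positive control at 10 µM. The IC50 was then taken from log-logistic dose–response fits with four parameters.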

HEL [2] = tested on: HEL
How it was run: as §1

HL-60 [3] = tested on: HL-60
How it was run: as §1

K-562 [4] = tested on: K-562
How it was run: as §1

KCL-22 [5] = tested on: KCL-22
How it was run: as §1

KG-1 [6] = tested on: KG-1
How it was run: as §1

KU-812 [7] = tested on: KU-812
How it was run: as §1

LAMA-84 [8] = tested on: LAMA-84
How it was run: as §1

ML-2 [9] = tested on: ML-2
How it was run: as §1

MOLM-13 [10] = tested on: MOLM-13
How it was run: as §1

MV4-11 [11] = tested on: MV4-11
How it was run: as §1

Mono-Mac-6 [12] = tested on: Mono-Mac-6
How it was run: as §1

NOMO-1 [13] = tested on: NOMO-1
How it was run: as §1

SHI-1 [14] = tested on: SHI-1
How it was run: as §1

THP-1 [15] = tested on: THP-1
How it was run: as §1

BV-173 [16] = assay: cell viability (% survival relative to DMSO control, bortezomib = 0%); higher = less cytotoxic
How it was run: (§2)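 In 384-well plates pre-printed with compounds at 1, 10, 100, 1000 or 10000 nM, duplicate wells received cells from 10 AML and 5 CML lines at densities within the linear growth range. The plates stayed at 37 °C with 5% CO2 for 72 h before CellTiter-Glo luminescence was recorded. Each entry is averaged percent survival. Scaling placed vehicle at 100% and a 10 µM positive control at 0%.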

HEL [17] = assay: as above
How it was run: as §2

HL-60 [18] = assay: as above
How it was run: as §2

K-562 [19] = assay: as above
How it was run: as §2

KCL-22 [20] = assay: as above
How it was run: as §2

KG-1 [21] = assay: as above
How it was run: as §2

KU-812 [22] = assay: as above
How it was run: as §2

LAMA-84 [23] = assay: as above
How it was run: as §2

ML-2 [24] = assay: as above
How it was run: as §2

MOLM-13 [25] = assay: as above
How it was run: as §2

MV4-11 [26] = assay: as above
How it was run: as §2

Mono-Mac-6 [27] = assay: as above
How it was run: as §2

NOMO-1 [28] = assay: as above
How it was run: as §2

SHI-1 [29] = assay: as above
How it was run: as §2

THP-1 [30] = assay: as above
How it was run: as §2

CC/C=C\C[C@H]1C(=O)CC[C@@H]1CC(=O)OC [Methyl jasmonate]
Settings | IC50 (cell viability) [µM]
BV-173 [1] | > 10
HEL [2] | > 10
HL-60 [3] | > 10
K-562 [4] | > 10
KCL-22 [5] | > 10
KG-1 [6] | > 10
KU-812 [7] | > 10
LAMA-84 [8] | > 10
ML-2 [9] | > 10
MOLM-13 [10] | > 10
MV4-11 [11] | > 10
Mono-Mac-6 [12] | > 10
NOMO-1 [13] | > 10
SHI-1 [14] | > 10
THP-1 [15] | > 10

cell viability [%]
Settings | 1 nM | 10 nM | 100 nM | 1000 nM | 10000 nM
BV-173 [16] | 108 | 111 | 103 | 93.2 | 103
HEL [17] | 97.3 | 99.1 | 114 | 99.5 | 111
HL-60 [18] | 92.7 | 99.1 | 105 | 96.5 | 111
K-562 [19] | 90.2 | 95.9 | 104 | 102 | 91.5
KCL-22 [20] | 109 | 99.9 | 96.9 | 91.9 | 103
KG-1 [21] | 115 | 95.7 | 93.9 | 101 | 105
KU-812 [22] | 99.3 | 108 | 110 | 99.1 | 104
LAMA-84 [23] | 95.6 | 100 | 105 | 98.7 | 110
ML-2 [24] | 115 | 110 | 101 | 99.9 | 108
MOLM-13 [25] | 108 | 113 | 116 | 94.3 | 96.6
MV4-11 [26] | 106 | 104 | 108 | 105 | 101
Mono-Mac-6 [27] | 102 | 101 | 111 | 96.2 | 107
NOMO-1 [28] | 104 | 110 | 101 | 93 | 100
SHI-1 [29] | 98.8 | 94.2 | 90.8 | 99.3 | 98
THP-1 [30] | 103 | 111 | 101 | 95.3 | 106
